For two compounds, IC50 results are on record in publication PMC3979805, “Identification of Resveratrol Oligomers as Inhibitors of Cystic Fibrosis Transmembrane Conductance Regulator by High-Throughput Screening of Natural Products from Chinese Medicinal Plants” (PLoS ONE, 2014).

Assay [1] addresses T1, cystic fibrosis transmembrane conductance regulator (CFTR) (Homo sapiens, UniProt P13569).
T1 construct: wild-type human CFTR stably expressed in FRT cells
Nature of the assay: EYFP-H148Q iodide influx assay in FRT cells; excised inside-out patch-clamp ([…], nearly irreversible). The class given is cell-based.

In assay [2] the target is T1, cystic fibrosis transmembrane conductance regulator (CFTR). Put plainly: EYFP-H148Q iodide influx assay in FRT cells; excised inside-out patch-clamp ([…], reversible). The class given is cell-based.

By IC50 is commonly meant the point on the concentration scale where inhibition reaches its midpoint. Higher therefore signals weaker potency.

T1 sequence (P13569 whole entry): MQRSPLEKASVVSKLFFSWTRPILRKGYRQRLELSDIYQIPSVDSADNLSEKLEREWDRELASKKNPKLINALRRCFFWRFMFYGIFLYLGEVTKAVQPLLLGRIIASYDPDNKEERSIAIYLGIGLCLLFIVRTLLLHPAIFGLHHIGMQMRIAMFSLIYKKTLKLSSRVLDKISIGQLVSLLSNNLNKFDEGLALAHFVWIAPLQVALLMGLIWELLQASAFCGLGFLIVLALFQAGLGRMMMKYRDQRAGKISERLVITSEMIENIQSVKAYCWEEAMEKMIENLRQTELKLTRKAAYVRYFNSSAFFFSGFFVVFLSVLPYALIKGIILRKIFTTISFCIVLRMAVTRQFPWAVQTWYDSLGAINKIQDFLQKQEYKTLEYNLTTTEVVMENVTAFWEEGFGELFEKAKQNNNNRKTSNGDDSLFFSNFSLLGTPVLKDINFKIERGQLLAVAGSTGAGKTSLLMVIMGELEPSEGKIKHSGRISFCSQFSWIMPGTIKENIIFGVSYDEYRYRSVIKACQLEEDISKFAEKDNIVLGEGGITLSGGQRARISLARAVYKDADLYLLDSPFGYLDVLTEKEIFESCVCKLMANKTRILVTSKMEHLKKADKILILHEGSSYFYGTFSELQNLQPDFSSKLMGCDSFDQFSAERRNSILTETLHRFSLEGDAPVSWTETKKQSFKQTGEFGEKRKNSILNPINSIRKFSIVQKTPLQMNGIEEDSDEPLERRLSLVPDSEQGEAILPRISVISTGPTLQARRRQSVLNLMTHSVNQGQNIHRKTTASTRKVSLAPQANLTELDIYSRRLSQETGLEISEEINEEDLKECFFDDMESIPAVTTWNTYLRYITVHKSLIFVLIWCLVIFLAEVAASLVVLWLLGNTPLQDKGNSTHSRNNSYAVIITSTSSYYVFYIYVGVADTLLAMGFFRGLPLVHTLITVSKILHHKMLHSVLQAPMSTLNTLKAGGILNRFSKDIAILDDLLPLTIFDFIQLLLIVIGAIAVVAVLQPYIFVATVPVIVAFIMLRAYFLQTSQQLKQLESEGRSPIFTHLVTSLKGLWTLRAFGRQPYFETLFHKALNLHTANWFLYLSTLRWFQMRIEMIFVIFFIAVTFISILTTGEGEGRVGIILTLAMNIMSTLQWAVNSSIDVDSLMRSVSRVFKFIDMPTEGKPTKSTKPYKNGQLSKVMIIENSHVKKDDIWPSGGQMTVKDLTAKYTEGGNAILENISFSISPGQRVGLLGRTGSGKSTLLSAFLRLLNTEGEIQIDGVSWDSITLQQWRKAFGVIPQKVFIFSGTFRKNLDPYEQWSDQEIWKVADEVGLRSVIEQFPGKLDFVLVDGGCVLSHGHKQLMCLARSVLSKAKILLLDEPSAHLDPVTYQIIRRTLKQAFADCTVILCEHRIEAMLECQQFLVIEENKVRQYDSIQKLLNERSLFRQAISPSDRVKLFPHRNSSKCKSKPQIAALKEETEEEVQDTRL

Turning to `Oc1ccc([C@H]2c3c(O)cc(O)cc3[C@H]3c4c(cc(O)cc4[C@H]2c2cc(/C=C/c4cc(O)cc5c4[C@H](c4cc(O)cc(O)c4)[C@@H](c4ccc(O)cc4)O5)ccc2O)O[C@@H]3c2ccc(O)cc2)cc1` [RV, r-2-viniferin], the IC50 in assay [1] is approximately 20 µM. `Oc1ccc(/C=C/c2cc(O)cc3c2[C@H](c2cc(O)cc(O)c2)[C@@H](c2ccc(O)cc2)O3)cc1` [TV, trans-ε-viniferin] registered an IC50 in assay [2] of approximately 20 µM.
